This passage reports EC50 results from patent publication US11091490B2, “3-amino-1,5-dihydro-pyrazolo[3,4-d]pyrimidin-4-ones as cyclin dependent kinase inhibitors” (Oncotyrol Center for Personalized Cancer Medicine GMBH, priority 2016, dated 2021).

Where “and” joins values, the source holds several entries; their conditions need not be identical. Equal entries are not always repeated. Where two headings read alike, the source gives them in different places.

In assay [1] the test system is RPMI-8226/GN1. The assay can be described thus: Multiple myeloma cells in mono- and co-culture with osteoblasts, imaging based detection (RPMI-8226). It counts as cell-based. As to the method:
(§1) Compound 86 has been compared with the key compound of WO 2000/21926 A2 (Example 121) in an imaging based detection system.
(§2) Two different multiple myeloma (MM) cell lines (RPMI-8226 (DSMZ, ACC 402), NCI-H929 DSMZ, ACC 163) have been used and were cultured in mono- and co-culture with osteoblasts (OB) (Osteoblasts were obtained by culturing hMSCs with a differentiation inducing medium for two weeks) in accordance with the method of Karadag A. et al. Journal of Bone and Mineral Research Vol. 15, No. 10, 2000 page 1935-43.

Assay [2] deals with NCI-H929/GN2. The assay can be described thus: Multiple myeloma cells in mono- and co-culture with osteoblasts, imaging based detection (NCI-H929). It counts as cell-based. As to the method:
as §1, §2

For orientation: EC50 means the concentration giving half of the maximal effect. Turning to `CC(C)c1nn(-c2c(Cl)cc(Cl)cc2Cl)c2nc(Cc3ccc(NC(=O)C4CN(C)CCN4C)cc3)[nH]c(=O)c12` (centres unmarked) [Reference compound, reference compound], the concentration giving a half-maximal response (EC50) is 420 nM in assay [1] (Homo sapiens, RPMI-8226, RPMI-8226/GN1, co-culture with osteoblasts, read-out: co-culture (+ OB) EC50); 120 nM in assay [1] (Homo sapiens, RPMI-8226, RPMI-8226/GN1, mono-culture, read-out: mono-culture EC50); 520 nM and 650 nM in assay [1] (RPMI-8226/GN1, co-culture with osteoblasts, read-out: co-culture (+ OB) EC50); 200 nM and 210 nM in assay [1] (RPMI-8226/GN1, mono-culture, read-out: mono-culture EC50); 160 nM in assay [2] (Homo sapiens, NCI-H929, NCI-H929/GN2, co-culture with osteoblasts, read-out: co-culture (+ OB) EC50); 50 nM in assay [2] (Homo sapiens, NCI-H929, NCI-H929/GN2, mono-culture, read-out: mono-culture EC50). For the same compound, the EC50 in assay [2] (NCI-H929/GN2, co-culture with osteoblasts, read-out: co-culture (+ OB) EC50) is 150 nM; in assay [2] (NCI-H929/GN2, mono-culture, read-out: mono-culture EC50), 65 nM.
